This experiment relates to fully infectious HIV-1 HXB2. Conditions: for IC90: read-out: IC90 (nM), […].
The mark [1] stands for this setting: read-out: IC50 (nM), […], fully infectious HIV-1 system (Table 3).
Where [2] appears, read: fully infectious HIV-1 system (Table 3).
[3] abbreviates: fully infectious HIV-1 system (Table 2).
The mark [4] stands for this setting: read-out: IC50 (inhibitory concentration at 50% infectivity), TZM-bl cells, fully contagious HXB2 HIV-1.

This note sets out measurements from US20150045291A1, “LIPOPEPTIDE CONJUGATES COMPRISING SPHINGOLIPID AND HIV GP41 DERIVED PEPTIDES” (priority 2012, published 2015).

Structures are written as SMILES. Where two headings read alike, the source gives them in different places. Starred links: 1 amine or outer side, 2 acyl side, 3 side chain; linkers in the order of their positions; H or OH if unused. Residues, ends and D or L forms follow the SMILES beside them. Groups on a side chain read outwards from the residue. *: point of attachment. Sphinganine = CCCCCCCCCCCCCCC[C@@H](O)[C@H](CO)N*; X2 = CCCCCCCCCCCCC/C=C/[C@@H](O)[C@H](CO)N*; CO = O=C([*:1])[*:2] Where only a bound is given, the exact number is not on record here.

The term IC90 denotes the concentration at which the effect reaches the 90% level. In the case of `CCCCCCCCCCCCCCC[C@@H](O)[C@H](CO)NC(=O)NCCCC[C@H](NC(=O)[C@H](CC(N)=O)NC(=O)[C@H](Cc1c[nH]c2ccccc12)NC(=O)[C@H](CCSC)NC(=O)[C@H](Cc1ccc(O)cc1)NC(=O)[C@H](CC(N)=O)NC(=O)[C@@H](NC(=O)[C@H](CC(=O)O)NC(=O)[C@H](CCC(=O)O)NC(=O)[C@H](CCCNC(=N)N)NC(=O)[C@H](Cc1c[nH]c2ccccc12)NC(=O)[C@@H](NC(=O)[C@H](CCC(=O)O)NC(=O)[C@@H](NC(=O)[C@@H](N)[C@@H](C)O)[C@@H](C)O)[C@@H](C)CC)[C@@H](C)O)C(N)=O` [Scrambled-Sphing, TTEIWREDTNYMWNK-sphing] (H-TTEIWREDTNYMWNK([CO-Sphinganine])-NH2; N-terminus assumed), the IC50 under setting [1] stood at 895 ± 70 nM. Moreover, the IC90 under setting [2] was determined as 6260 ± 3670 nM.

Turning to `CCCCCCCCCCCCCCC[C@@H](O)[C@@H](N)CO` [sphinganine, D-erythro-Dihydrosphingosine, reference compound], the “Effect on viral infectivity / fusion (in words)” value (at / up to 1 μM) was “did not affect viral infectivity”.

In the case of `CCCCCCCCCCCCCCC[C@@H](O)[C@H](CO)NC(=O)NCCCC[C@H](NC(=O)[C@H](CC(C)C)NC(=O)[C@@H](NC(=O)[C@H](CCCNC(=N)N)NC(=O)[C@H](C)NC(=O)[C@H](CCC(N)=O)NC(=O)[C@H](CC(C)C)NC(=O)[C@H](CCC(N)=O)NC(=O)[C@H](CCCCN)NC(=O)[C@@H](NC(=O)CNC(=O)[C@H](Cc1c[nH]c2ccccc12)NC(=O)[C@@H](NC(=O)[C@@H](NC(=O)[C@H](CC(C)C)NC(=O)[C@H](CCC(N)=O)NC(=O)[C@H](CC(C)C)NC(=O)[C@@H](N)CC(C)C)[C@@H](C)O)C(C)C)[C@@H](C)CC)[C@@H](C)CC)C(N)=O` [N17K-sphing, LLQLTVWGIKQLQARILK-Sphinganine] (H-LLQLTVWGIKQLQARILK([CO-Sphinganine])-NH2), the IC50 reads like this: under setting [3], 291 ± 102 nM; under setting [4], 287 nM.

In the case of `CCCCCCCCCCCCCCC[C@@H](O)[C@H](CO)NC(=O)N[C@@H](CC(C)C)C(=O)N[C@@H](CC(C)C)C(=O)N[C@@H](CCC(N)=O)C(=O)N[C@@H](CC(C)C)C(=O)N[C@H](C(=O)N[C@H](C(=O)N[C@@H](Cc1c[nH]c2ccccc12)C(=O)NCC(=O)N[C@H](C(=O)N[C@@H](CCCCN)C(=O)N[C@@H](CCC(N)=O)C(=O)N[C@@H](CC(C)C)C(=O)N[C@@H](CCC(N)=O)C(=O)N[C@@H](C)C(N)=O)[C@@H](C)CC)C(C)C)[C@@H](C)O` [Sphing-N14, Sphinganine-LLQLTVWGIKQLQA] ({Sphinganine-CO}-LLQLTVWGIKQLQA-NH2), under setting [3], the IC50 came to 500 ± 100 nM.

Consider `CCCCCCCCCCCCCCC[C@@H](O)[C@H](CO)NC(=O)NCCCC[C@H](NC(=O)[C@@H](NC(=O)[C@H](CCC(=O)O)NC(=O)[C@H](CCCNC(=N)N)NC(=O)[C@H](CC(=O)O)NC(=O)[C@H](Cc1c[nH]c2ccccc12)NC(=O)[C@H](CCC(=O)O)NC(=O)[C@H](CCSC)NC(=O)[C@H](Cc1c[nH]c2ccccc12)NC(=O)[C@@H](N)[C@@H](C)O)[C@@H](C)CC)C(N)=O` [Truncated-Sphing, TWMEWDREIK-Sphinganine] (H-TWMEWDREIK([CO-Sphinganine])-NH2; N-terminus assumed), for which, under setting [1], the IC50 came to 1330 ± 270 nM. Further, under setting [2], the IC90 was determined as 2480 ± 320 nM.

Compound `CCCCCCCCCCCCCCC[C@@H](O)[C@H](CO)NC(=O)N[C@@H](CCC(N)=O)C(=O)N[C@@H](CCCCN)C(=O)N[C@H](C(=O)N[C@@H](C)C(=O)N[C@@H](CCCNC(=N)N)C(=O)N[C@@H](CC(C)C)C(=O)N[C@@H](CCC(N)=O)C(=O)N[C@H](C(=O)N[C@@H](CC(C)C)C(=O)N[C@@H](Cc1c[nH]c2ccccc12)C(=O)N[C@@H](CC(C)C)C(=O)N[C@@H](CCC(N)=O)C(=O)N[C@H](C(=O)NCC(=O)N[C@H](C(=O)N[C@@H](CC(C)C)C(=O)N[C@@H](CC(C)C)C(N)=O)C(C)C)[C@@H](C)CC)[C@@H](C)O)[C@@H](C)CC` [Sphing-N17 scrambled] ({Sphinganine-CO}-QKIARLQTLWLQIGVLL-NH2) gave an IC50 under setting [3] greater than 4000 nM.

`CC[C@H](C)[C@H](NC(=O)[C@H](CCC(=O)O)NC(=O)[C@H](CCCNC(=N)N)NC(=O)[C@H](CC(=O)O)NC(=O)[C@H](Cc1c[nH]c2ccccc12)NC(=O)[C@H](CCC(=O)O)NC(=O)[C@H](CCSC)NC(=O)[C@H](Cc1c[nH]c2ccccc12)NC(=O)[C@@H](NC(=O)[C@@H](N)[C@@H](C)O)[C@@H](C)O)C(=O)N[C@@H](CC(N)=O)C(=O)N[C@@H](CC(N)=O)C(=O)N[C@@H](Cc1ccc(O)cc1)C(=O)N[C@H](C(=O)N[C@@H](CCCCN)C(N)=O)[C@@H](C)O` [PBDK, TTWMEWDREINNYTK] (H-TTWMEWDREINNYTK-NH2; N-terminus and C-terminus assumed): the IC50 under setting [1] came to 5350 ± 1700 nM. For the same compound, the IC90 under setting [2] is greater than 10000 nM.

In the case of `CC[C@H](C)[C@H](NC(=O)[C@H](CC(C)C)NC(=O)[C@H](CO)NC(=O)[C@H](Cc1c[nH]cn1)NC(=O)[C@@H](NC(=O)[C@H](CC(C)C)NC(=O)[C@H](CO)NC(=O)[C@@H](NC(=O)[C@@H](N)Cc1ccc(O)cc1)[C@@H](C)O)[C@@H](C)CC)C(=O)N[C@@H](CCC(=O)O)C(=O)N[C@@H](CCC(=O)O)C(=O)N[C@@H](CO)C(=O)N[C@@H](CCC(N)=O)C(=O)N[C@@H](CC(N)=O)C(=O)N[C@@H](CCC(N)=O)C(=O)N[C@@H](CCC(N)=O)C(=O)N[C@@H](CCC(=O)O)C(=O)N[C@@H](CCCCN)C(=O)N[C@@H](CC(N)=O)C(=O)N[C@@H](CCCCN)C(N)=O` [DP19K] (H-YTSLIHSLIEESQNQQEKNK-NH2; C-terminus assumed), the IC50 under setting [3] came out at 2210 ± 507 nM.

Take `CCCCCCCCCCCCCCC[C@@H](O)[C@H](CO)NC(=O)N[C@@H](CC(C)C)C(=O)N[C@@H](CC(C)C)C(=O)N[C@@H](CCC(N)=O)C(=O)N[C@@H](CC(C)C)C(=O)N[C@H](C(=O)N[C@H](C(=O)N[C@@H](Cc1c[nH]c2ccccc12)C(=O)NCC(=O)N[C@H](C(=O)N[C@@H](CCCCN)C(=O)N[C@@H](CCC(N)=O)C(=O)N[C@@H](CC(C)C)C(=O)N[C@@H](CCC(N)=O)C(=O)N[C@@H](C)C(=O)N[C@@H](CCCNC(=N)N)C(=O)N[C@H](C(=O)N[C@@H](CC(C)C)C(=O)N[C@@H](CCCCN)C(N)=O)[C@@H](C)CC)[C@@H](C)CC)C(C)C)[C@@H](C)O` [Sphing-N17K, Sphinganine-LLQLTVWGIKQLQARILK] ({Sphinganine-CO}-LLQLTVWGIKQLQARILK-NH2): the IC50 worked out at 118 ± 18 nM under setting [3] and 116 nM under setting [4].

Regarding `CCCCCCCCCCCCC/C=C/[C@@H](O)[C@H](CO)NC(=O)N[C@@H](CC(C)C)C(=O)N[C@@H](CC(C)C)C(=O)N[C@@H](CCC(N)=O)C(=O)N[C@@H](CC(C)C)C(=O)N[C@H](C(=O)N[C@H](C(=O)N[C@@H](Cc1c[nH]c2ccccc12)C(=O)NCC(=O)N[C@H](C(=O)N[C@@H](CCCCN)C(=O)N[C@@H](CCC(N)=O)C(=O)N[C@@H](CC(C)C)C(=O)N[C@@H](CCC(N)=O)C(=O)N[C@@H](C)C(=O)N[C@@H](CCCNC(=N)N)C(=O)N[C@H](C(=O)N[C@@H](CC(C)C)C(N)=O)[C@@H](C)CC)[C@@H](C)CC)C(C)C)[C@@H](C)O` [Sphingosine-N17, Sphingosine-LLQLTVWGIKQLQARIL] ({X2-CO}-LLQLTVWGIKQLQARIL-NH2), under setting [4], the IC50 stood at 208 nM.

For `CCCCCCCCCCCCCCC[C@@H](O)[C@H](CO)NC(=O)N[C@@H](CC(C)C)C(=O)N[C@@H](CCC(=O)O)C(=O)N[C@@H](CCC(N)=O)C(=O)N[C@@H](CC(C)C)C(=O)N[C@@H](CO)C(=O)N[C@H](C(=O)N[C@@H](Cc1c[nH]c2ccccc12)C(=O)NCC(=O)N[C@@H](CO)C(=O)N[C@@H](CCCCN)C(=O)N[C@@H](CCC(N)=O)C(=O)N[C@@H](CC(N)=O)C(=O)N[C@@H](CCC(N)=O)C(=O)N[C@@H](C)C(=O)N[C@@H](CCCNC(=N)N)C(=O)N[C@@H](CCCNC(=N)N)C(=O)N[C@@H](CC(C)C)C(N)=O)C(C)C` [Sphing-N17mut (a, d)] ({Sphinganine-CO}-LEQLSVWGSKQNQARRL-NH2), the IC50 under setting [3] was greater than 4000 nM.

Under setting [3], `CCCCCCCCCCCCCCC[C@@H](O)[C@H](CO)NC(=O)N[C@@H](CCC(=O)O)C(=O)N[C@@H](CC(C)C)C(=O)N[C@@H](CCC(N)=O)C(=O)N[C@@H](CC(C)C)C(=O)N[C@H](C(=O)N[C@@H](CCC(N)=O)C(=O)N[C@@H](Cc1c[nH]c2ccccc12)C(=O)N[C@@H](CCCCN)C(=O)N[C@H](C(=O)N[C@@H](CCCCN)C(=O)N[C@@H](CCC(N)=O)C(=O)N[C@@H](CC(C)C)C(=O)N[C@@H](CC(C)C)C(=O)N[C@@H](C)C(=O)N[C@@H](CCCNC(=N)N)C(=O)N[C@H](C(=O)N[C@@H](CC(C)C)C(=O)N[C@@H](CCCCN)C(N)=O)[C@@H](C)CC)[C@@H](C)CC)[C@@H](C)O` [Sphing-N17mut (e, g) K, Sphinganine-ELQLTQWKIKQLLARILK] ({Sphinganine-CO}-ELQLTQWKIKQLLARILK-NH2) had an IC50 of 120 ± 30 nM.

As to `CC[C@H](C)[C@H](NC(=O)CNC(=O)[C@H](Cc1c[nH]c2ccccc12)NC(=O)[C@@H](NC(=O)[C@@H](NC(=O)[C@H](CC(C)C)NC(=O)[C@H](CCC(N)=O)NC(=O)[C@H](CC(C)C)NC(=O)[C@@H](N)CC(C)C)[C@@H](C)O)C(C)C)C(=O)N[C@@H](CCCCN)C(=O)N[C@@H](CCC(N)=O)C(=O)N[C@@H](CC(C)C)C(=O)N[C@@H](CCC(N)=O)C(=O)N[C@@H](C)C(N)=O` [N14, LLQLTVWGIKQLQA] (H-LLQLTVWGIKQLQA-NH2; C-terminus assumed), the IC50 under setting [3] is greater than 4000 nM.

Compound `CC(C)C[C@H](NC(=O)[C@H](CCCNC(=N)N)NC(=O)[C@H](CCCNC(=N)N)NC(=O)[C@H](C)NC(=O)[C@H](CCC(N)=O)NC(=O)[C@H](CC(N)=O)NC(=O)[C@H](CCC(N)=O)NC(=O)[C@H](CCCCN)NC(=O)[C@H](CO)NC(=O)CNC(=O)[C@H](Cc1c[nH]c2ccccc12)NC(=O)[C@@H](NC(=O)[C@H](CO)NC(=O)[C@H](CC(C)C)NC(=O)[C@H](CCC(N)=O)NC(=O)[C@H](CCC(=O)O)NC(=O)[C@@H](N)CC(C)C)C(C)C)C(N)=O` [N17mut (a, d), LEQLSVWGSKQNQARRL] (H-LEQLSVWGSKQNQARRL-NH2; C-terminus assumed) gave an IC50 under setting [3] greater than 4000 nM.
